Assays:
Experiment in all cases: viability inhibition at highest dose (% inhibition); higher = more growth inhibition
[1] = test system: BT-474 Tam1; settings: 4-OH-tamoxifen in medium 1 µM; 72 h
Procedure: (§1)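 Percent inhibition of viability (CellTiter-Glo, 72 h) at the highest tested concentration (D5), normalised to DMSO (0%) and 100 µM benzethonium chloride (100%). Resistant lines and the 'in 1µM tamoxifen' arms were tested in 1 µM 4-OH-tamoxifen.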

[2] = test system: BT-474 Tam2; settings: 4-OH-tamoxifen in medium 1 µM; 72 h
Procedure: as §1

[3] = test system: BT-474; settings: 72 h
Procedure: as §1

[4] = test system: MCF-7 Tam1; settings: 4-OH-tamoxifen in medium 1 µM; 72 h
Procedure: as §1

[5] = test system: MCF-7; settings: 72 h
Procedure: as §1

[6] = test system: T-47D Tam1; settings: 4-OH-tamoxifen in medium 1 µM; 72 h
Procedure: as §1

[7] = test system: T-47D Tam2; settings: 4-OH-tamoxifen in medium 1 µM; 72 h
Procedure: as §1

[8] = test system: T-47D; settings: 72 h
Procedure: as §1

[9] = test system: ZR-75-1 Tam1; settings: 4-OH-tamoxifen in medium 1 µM; 72 h
Procedure: as §1

[10] = test system: ZR-75-1 Tam2; settings: 4-OH-tamoxifen in medium 1 µM; 72 h
Procedure: as §1

[11] = test system: ZR-75-1; settings: 72 h
Procedure: as §1

SMILES | viability inhibition at highest dose [1] | viability inhibition at highest dose [2] | viability inhibition at highest dose ([3]; 4-OH-tamoxifen in medium 0 µM) | viability inhibition at highest dose ([3]; 4-OH-tamoxifen in medium 1 µM) | viability inhibition at highest dose [4] | viability inhibition at highest dose ([5]; 4-OH-tamoxifen in medium 0 µM) | viability inhibition at highest dose ([5]; 4-OH-tamoxifen in medium 1 µM) | viability inhibition at highest dose [6] | viability inhibition at highest dose [7] | viability inhibition at highest dose ([8]; 4-OH-tamoxifen in medium 0 µM) | viability inhibition at highest dose ([8]; 4-OH-tamoxifen in medium 1 µM) | viability inhibition at highest dose [9] | viability inhibition at highest dose [10] | viability inhibition at highest dose ([11]; 4-OH-tamoxifen in medium 0 µM) | viability inhibition at highest dose ([11]; 4-OH-tamoxifen in medium 1 µM)
CCc1c2c(nc3ccc(OC(=O)N4CCC(N5CCCCC5)CC4)cc13)-c1cc3c(c(=O)n1C2)COC(=O)[C@]3(O)CC [Irinotecan] (drug 10000 nM) | -9.22 | -11 | -20.2 | -25.4 | -8.36 | 23.7 | 23.7 | 34.4 | 23.3 | 42.8 | -0.292 | 35 | 44.3 | 41.6 | 30
O=C(O)CCCc1ccc(N(CCCl)CCCl)cc1 [Chlorambucil] (drug 10000 nM) | -1.33 | -11.1 | -5.56 | -5.81 | -8.39 | 2.18 | -4.5 | -7.66 | 9.69 | -20.9 | 1.91 | 3.96 | -11.1 | -4.67 | -2.49
C=CC[C@@H]1/C=C(\C)C[C@H](C)C[C@H](OC)[C@H]2O[C@@](O)(C(=O)C(=O)N3CCCC[C@H]3C(=O)O[C@H](/C(C)=C/[C@@H]3CC[C@@H](O)[C@H](OC)C3)[C@H](C)[C@@H](O)CC1=O)[C@H](C)C[C@@H]2OC [Tacrolimus (FK 506)] (drug 10000 nM) | 46.6 | 35 | 8.63 | 39.4 | 18.8 | 25.3 | 37.4 | 27.2 | 23.9 | 5.71 | 3.68 | 15.5 | 11.5 | -3.64 | 16
CNC(=O)c1cc(Oc2ccc(NC(=O)Nc3ccc(Cl)c(C(F)(F)F)c3)c(F)c2)ccn1 [Regorafenib (BAY 73-4506)] (drug 10000 nM) | 93.1 | 76.2 | 38 | 73 | 18.1 | 52.7 | 33.5 | 31.3 | 16.3 | 29.1 | 18.2 | 22.4 | 32.6 | 17 | 18.3
Nc1nc2[nH]cnc2c(=S)[nH]1 [Thioguanine] (drug 10000 nM) | 28.5 | 24 | 11.1 | 20.1 | 28.6 | 55.7 | 46.2 | 50.6 | 41.7 | 36.5 | 23.8 | 37.8 | 32.6 | 43.6 | 32.5
COc1cc(CCc2cc(NC(=O)c3ccc(N4CC(C)NC(C)C4)cc3)n[nH]2)cc(OC)c1 (stereo not given) [AZD4547] (drug 1000 nM) | 8.22 | -5.95 | -7.84 | 5.15 | -1.84 | -4.05 | 2.4 | -9.97 | -1.01 | -22.2 | 8.39 | 1.86 | -8.6 | -14.5 | -5.83
c1cc(CN2CCCNCCNCCCNCC2)ccc1CN1CCCNCCNCCCNCC1 [Plerixafor] (drug 2500 nM) | 3.09 | 1.19 | 4.13 | -27.6 | -8.37 | -2.68 | 1.01 | 2.69 | 1.1 | -9.65 | -11.9 | 1.99 | 4.58 | -5.05 | 1.12
CC1(C)CNc2cc(NC(=O)c3cccnc3NCc3ccncc3)ccc21 [Motesanib  (AMG-706)] (drug 10000 nM) | -2.75 | -2.84 | -7.25 | -16.2 | -1.95 | -2.53 | 1.3 | 9.4 | 12.6 | -15.1 | -10.7 | -1.35 | -1.27 | -8.12 | -2.93
CS(=O)(=O)OCCCCOS(C)(=O)=O [Busulfan] (drug 100000 nM) | -2.76 | 1 | 1.99 | 8.07 | -1.89 | -5.52 | 10.5 | 1.25 | 6.32 | -1.41 | -0.37 | -5.35 | -11.6 | 1.38 | -1.26
CO[C@H]1C[C@@H]2CC[C@@H](C)[C@@](O)(O2)C(=O)C(=O)N2CCCC[C@H]2C(=O)O[C@H]([C@H](C)C[C@@H]2CC[C@@H](OCCO)[C@H](OC)C2)CC(=O)[C@H](C)/C=C(\C)[C@@H](O)[C@@H](OC)C(=O)[C@H](C)C[C@H](C)/C=C/C=C/C=C/1C [Everolimus] (drug 100 nM) | 22.1 | 15.8 | 15.8 | 11.4 | 15.6 | 47.5 | 34.3 | 28.2 | 25.9 | 29.1 | 24 | 34.2 | 38.4 | 35.9 | 32.7
CN(C)/N=N/c1[nH]cnc1C(N)=O [Dacarbazine] (drug 10000 nM) | -7.07 | 6.76 | -13 | -17.3 | -11.3 | -17 | 10.7 | -0.257 | -1.82 | -8.78 | -10 | 0.27 | 6.57 | -2.8 | -13
CCCCCCCCc1ccc(CCC(N)(CO)CO)cc1 [Fingolimod] (drug 10000 nM) | 96.8 | 95.2 | 94.4 | 96.6 | 11.9 | 94.6 | 71.4 | 62.4 | 59.1 | 69.4 | 91.9 | 45.3 | 55.5 | 40.8 | 52.5
NC(=O)c1cccc2cn(-c3ccc([C@@H]4CCCNC4)cc3)nc12 [MK-4827] (drug 10000 nM) | 42.3 | 21.1 | -13.3 | -7.59 | -3.14 | 12.1 | 16.4 | 1.65 | 14.2 | 20.9 | -1.38 | 2.04 | 9.71 | 11.6 | 8.9
CC[C@H](CO)Nc1nc(NCc2ccccc2)c2ncn(C(C)C)c2n1 [Seliciclib (Roscovitine)] (drug 10000 nM) | -2.39 | 3.77 | -9.62 | -8.52 | 13.8 | 29 | 17.2 | 24.8 | 23.6 | -4.76 | -17.1 | -5.94 | -4.53 | -12.8 | -9.91
CNC(=O)c1ccc(N2C(=S)N(c3ccc(C#N)c(C(F)(F)F)c3)C(=O)C23CCC3)cc1F [RD162] (drug 10000 nM) | 13.8 | 13.7 | -4.36 | -3.06 | 3.13 | -8.95 | 8.98 | 3.92 | 3.39 | -17.8 | 17.8 | 2.17 | 1.22 | -4.4 | 3.37
Nc1ccccc1NC(=O)c1ccc(CNC(=O)OCc2cccnc2)cc1 [Entinostat] (drug 10000 nM) | 79 | 53.2 | 61.4 | 83.9 | 5.52 | 62.3 | 40.4 | 60.3 | 10.9 | 66.4 | 36.6 | 28.8 | 27.5 | 33.7 | 10.2
N#Cc1ccc(C(c2ccc(C#N)cc2)n2cncn2)cc1 [Letrozole] (drug 10000 nM) | -6.74 | -3.68 | -5.7 | -8.86 | -6.5 | -10.7 | -14.2 | -0.0184 | 6.57 | -9.48 | 0.428 | -0.517 | -2.74 | -2.82 | -9.49
COc1ccccc1S(=O)(=O)Nc1ccc2c(c1)CN(C)C(=O)N2 [PFI-1] (drug 10000 nM) | 25.7 | 30.3 | 32.8 | 25.7 | 4.98 | 44.2 | 38.1 | 36.4 | 32.8 | 26.2 | 14 | 23.8 | 25.8 | 13.1 | 25.2
Cc1c(CN2CCN(C(=O)[C@H](C)O)CC2)sc2c(N3CCOCC3)nc(-c3cnc(N)nc3)nc12 [GDC-0980] (drug 10000 nM) | 87.4 | 84.3 | 60.1 | 86.3 | 52.1 | 74 | 73.4 | 67.1 | 64 | 73.8 | 72.1 | 66.6 | 72.1 | 64.4 | 56.3
O=S(=O)(c1cccc2cnccc12)N1CCCNCC1 [Fasudil  (HA-1077)] (drug 50000 nM) | -5.55 | -12.9 | -7 | -17.4 | 7.1 | 21 | -0.98 | 2.59 | 20.1 | -20.9 | -12.4 | 3.21 | -8.22 | -7.56 | -6.81
CC(C)(C#N)c1cc(Cn2cncn2)cc(C(C)(C)C#N)c1 [Anastrozole] (drug 10000 nM) | -0.566 | -3.02 | -8.01 | -8.68 | -5.71 | -4.15 | -2.23 | -5.37 | 2.94 | -9.21 | -3.66 | -5.43 | -10.2 | -9.38 | -3.76
S=P(N1CC1)(N1CC1)N1CC1 [Thio-TEPA] (drug 100000 nM) | 11.3 | 9.92 | -3.59 | -5.3 | -0.761 | -13.2 | 9.81 | 3.55 | -1.13 | 2.16 | -2.96 | 11.1 | 4.16 | 4.61 | -3.56

— the supplement of paper PMC4932681
